Results on three compounds are retold here after US6818638B2, “Melvinolin derivatives” (Novartis AG, priority 1999, dated 2004).

The target in assay [1] is T1, human LFA-1 / human ICAM-1 (Homo sapiens, UniProt P20701).
T1 construct: endogenous in cells; ICAM-1-Cκ: made in house in the baculovirus system
The assay is described as follows: Cell free assay: binding of soluble human ICAM-1 to immobilized human LFA-1. To be noted: cell free assay Ai); read-out: IC50, inhibition of adhesion of LFA-1 to ICAM-1. As to the method: The assay measures the binding of soluble human ICAM-1 to Immobilized human LFA-1 is purified from JY cells, a human lymphoblastoid B cell-line, by immunoaffinity chromatography as described by Dustin et al. (J. Immunol. 148, 2654-2663, 1992). ICAM-1 mouse Cκ fusion protein (ICAM-1) is produced using the baculovirus system as described by Weitz-Schmidt et al. (Anal. Biochem.238,184-190, 1996).
Purified LFA-1 is diluted 1:20 in phosphate buffered saline (PBS) containing 2 mM MgCl2, pH 7.4 and coated onto microtitre plates (Nunc) at 37° C. for 3h. Plates are blocked with 1% heat-treated BSA in PBS for 2 hours at 37° C. followed by a washing step using PBS, 2 mM MgCl2, 1% fetal calf serum, pH 7.4 (assay buffer). Compounds dissolved at 10 mM in DMSO are diluted in assay buffer and added to the plates. Biotinylated recombinant ICAM-1 in assay buffer (6 μg/ml) is added and allowed to bind at 37° C. for one hour. After incubation, wells are washed with assay buffer. Streptavidin-peroxidase diluted 1:5000 in assay buffer is added and incubated for 45 min at 37° C. Plates are then washed with assay buffer and 2.2′-azino-bis(3-ethylbenzothiazoline-6 sulfonic acid) diammonium salt substrate solution is added to each well. The reaction is stopped after 20 min and bound ICAM-1 is determined by measuring the optical density at 405 nm in a microplate reader.
In this assay, compounds of formula I inhibit adhesion of LFA-1 to ICAM-1 with an IC50≦30 μM, preferably 0.05 to 30 μM.

For assay [2], the system named is Peripheral blood mononuclear cells (PBMC). The assay is described as follows: Human Mixed Lymphocyte Reaction (MLR). Format: cell-based. To be noted: 2-way reactions, six days, 3H-thymidine, read-out: IC50, 50% inhibition of cell proliferation in MLR. As to the method: Peripheral blood mononuclear cells (PBMC) are isolated from human buffy coats. In each experiment, PBMC from three different donors (A, B, and C) are set up in three individual 2-way reactions (A-B, A-C, B-C). Cells are cocultured for six days and proliferation is determined by pulsing the cells with ^3H-thymidine. The concentration of compounds of formula I which results in 50% inhibition of cell proliferation (IC50) is calculated.

The test system of assay [3] is thioglycollate induced neutrophil migration. The assay is described as follows: Murine Thioglycollate Induced Peritonitis. To be noted: Mus musculus, Neutrophil, po; p.o.; neutrophils in peritoneal lavage after 4 hours; read-out: ED50 in test Bi). The assay is classed as in vivo, mice.
The subject of assay [4] is oxazolone-induced allergic contact dermatitis. The assay can be described thus: Allergic Contact Dermatitis (ACD), oxazolone-sensitized mice. Format: in vivo. The protocol:
Groups of oxazolone-sensitized mice are challenged with 10 μl of 0.2 or 2.0% oxazolone on the inner surface of the right to eliciate ACD. The low concentration of oxazolone is used for testing compounds on systemic activity whereas the high concentration is applied for topical testing. The unchallenged left ears serve as normal controls and dermatitis is evaluated from the individual differences in pinnal weight, which is taken as a measure of increase in inflammatory swelling 24 h after the challenge. Dermatitis is evaluated in test- and for comparison in control groups. The test groups are treated with the test compounds either orally (twice, 2 h and immediately before challenge), subcutaneously (immediately before challenge) or topically (30 min after challenge at the site of elicitation of the ACD); the controls are treated similarly with the vehicles alone. For oral and subcutaneous administration the compounds are administered in an oil in water emulsion, for topical administration the compounds are prepared in a mixture of ethanol, acetone and dimethylacetamide. The data of the test- and the vehicle-treated control groups are statistically analysed by ANOVA followed by Dunnet T-test (normal distribution or data) or by H and U-test, respectively. […]

T1 sequence (P20701 26-1170): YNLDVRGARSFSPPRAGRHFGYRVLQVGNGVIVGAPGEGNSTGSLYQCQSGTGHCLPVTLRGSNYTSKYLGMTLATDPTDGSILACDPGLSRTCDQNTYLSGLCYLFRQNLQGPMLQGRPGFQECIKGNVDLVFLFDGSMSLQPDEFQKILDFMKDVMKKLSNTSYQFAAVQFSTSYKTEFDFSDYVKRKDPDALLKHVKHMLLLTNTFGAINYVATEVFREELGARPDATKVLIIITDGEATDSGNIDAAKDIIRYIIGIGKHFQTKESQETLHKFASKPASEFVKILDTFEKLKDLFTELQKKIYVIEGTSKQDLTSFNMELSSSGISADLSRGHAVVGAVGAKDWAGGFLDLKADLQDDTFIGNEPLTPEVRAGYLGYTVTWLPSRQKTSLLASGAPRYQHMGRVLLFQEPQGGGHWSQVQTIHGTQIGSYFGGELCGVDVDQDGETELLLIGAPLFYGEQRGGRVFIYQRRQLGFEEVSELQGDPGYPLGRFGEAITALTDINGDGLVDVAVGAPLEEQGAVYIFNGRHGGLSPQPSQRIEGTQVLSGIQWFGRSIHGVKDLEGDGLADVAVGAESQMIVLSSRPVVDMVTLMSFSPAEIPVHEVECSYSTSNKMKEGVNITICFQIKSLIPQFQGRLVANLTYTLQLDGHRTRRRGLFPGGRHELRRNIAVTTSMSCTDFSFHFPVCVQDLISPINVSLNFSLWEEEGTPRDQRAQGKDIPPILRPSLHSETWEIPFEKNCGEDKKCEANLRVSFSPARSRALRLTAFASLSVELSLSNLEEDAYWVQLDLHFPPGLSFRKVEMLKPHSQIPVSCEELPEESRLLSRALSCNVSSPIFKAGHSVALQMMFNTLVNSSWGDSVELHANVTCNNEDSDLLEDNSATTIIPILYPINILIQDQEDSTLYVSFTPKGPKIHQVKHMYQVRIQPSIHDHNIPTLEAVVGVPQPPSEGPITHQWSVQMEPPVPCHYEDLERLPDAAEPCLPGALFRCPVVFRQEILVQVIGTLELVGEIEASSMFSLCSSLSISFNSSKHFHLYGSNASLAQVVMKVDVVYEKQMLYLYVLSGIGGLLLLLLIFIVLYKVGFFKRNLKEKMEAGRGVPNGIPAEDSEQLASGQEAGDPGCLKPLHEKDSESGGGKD
T1 sequence (P05107 23-769 partner): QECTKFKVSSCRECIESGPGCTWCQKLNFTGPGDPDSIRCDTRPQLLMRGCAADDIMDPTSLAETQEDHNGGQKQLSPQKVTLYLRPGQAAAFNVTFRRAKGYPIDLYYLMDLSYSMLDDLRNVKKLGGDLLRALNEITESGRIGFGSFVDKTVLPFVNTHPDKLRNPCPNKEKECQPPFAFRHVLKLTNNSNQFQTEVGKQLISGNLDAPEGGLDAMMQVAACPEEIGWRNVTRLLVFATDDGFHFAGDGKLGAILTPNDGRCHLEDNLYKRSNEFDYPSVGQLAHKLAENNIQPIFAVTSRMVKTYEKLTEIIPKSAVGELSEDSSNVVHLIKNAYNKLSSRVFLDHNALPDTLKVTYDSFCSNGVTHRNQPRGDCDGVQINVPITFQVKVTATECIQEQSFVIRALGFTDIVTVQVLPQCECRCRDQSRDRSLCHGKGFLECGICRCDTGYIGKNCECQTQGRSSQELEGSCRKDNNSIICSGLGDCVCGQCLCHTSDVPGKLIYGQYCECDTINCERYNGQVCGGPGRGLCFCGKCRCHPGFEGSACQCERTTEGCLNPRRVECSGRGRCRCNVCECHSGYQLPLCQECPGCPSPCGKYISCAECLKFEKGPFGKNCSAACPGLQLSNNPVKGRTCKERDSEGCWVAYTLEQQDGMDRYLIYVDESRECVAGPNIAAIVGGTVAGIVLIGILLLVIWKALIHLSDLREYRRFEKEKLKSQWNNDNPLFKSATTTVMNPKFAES

With `CC[C@H](C)C(=O)O[C@H]1C[C@@H](C)C=C2C=C[C@H](C)[C@H](CC[C@@H]3C[C@H](CC(=O)NC)N(Cc4ccc(O)c(OC)c4)C(=O)O3)[C@H]21` [Ex. 2], the IC50 turned out to be 50 nM in assay [1] and 200 nM in assay [2]. The ED50 in assay [3] amounted to 0.1 µg/kg. The “inhibiting effect in ACD” value in assay [4] (p.o. at a dose of 2×3 mg/kg) is reported as 41%.
`CC[C@H](C)C(=O)O[C@H]1C[C@@H](C)C=C2C=C[C@H](C)[C@H](CC[C@H]3C[C@@H](O)CC(=O)N3Cc3ccc4c(CO)c(OC)ccc4c3)[C@H]21` [Ex. 34, (S)2-Methyl-butyric acid (1S,3R,7S,8S,8aR)-8-{2-[(2S,4R)4-hydroxy-1-(5-hydroxymethyl-6-methoxy-naphthalen-2-ylmethyl)-6-oxo-piperidin-2-yl]-ethyl}-3,7-dimethyl-1,2,3,7,8,8a-hexahydro-naphthalen-1-yl ester]: the IC50 in assay [1] was 190 nM. Also, the “inhibition of inflammatory swelling in ACD” value in assay [4] (2x 1 mg/kg p.o.) came to 41%.
Regarding `CC[C@H](C)C(=O)O[C@H]1C[C@@H](C)C[C@@H]2CC[C@H](C)[C@H](CC[C@@H](O)C[C@@H](O)CC(=O)NCc3ccc(OC)c(OC)c3)[C@H]21` [compound 28, (S)-2-Methyl-butyric acid (S)-(3S,4aS,7S,8S,8aS)-8-[(3R,5)6-(3,4-dimethoxy-benzylcarbamoyl)-3,5-dihydroxy-hexyl]-3,7-dimethyl-decahydro-naphthalen-1-yl ester], the IC50 in assay [1] came to 790 nM.
